Measured values from ChEMBL document CHEMBL1201862, “PubChem BioAssay data set” (2004).
Structures can show the parent of a compound that is named as a salt. The source made the active and inactive calls.

Legend:
[1] = P. falciparum Dd2 growth inhibitors, dose response, SYBR Green, dry powder samples, set 4 (AID 1159572); type: functional, cell-based
[2] = enhancers of respiration in Yfh1-depleted yeast, dose response, Friedreich's ataxia, plus single-dose screen (AID 1465); type: functional;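 note: yeast depleted of Yfh1p frataxin homolog grown on glycerol needing respiration; WST-1 tetrazolium dye reduction as measure of cellular dehydrogenase metabolic activity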
[3] = biological target: Nonstructural protein 1 (Influenza A virus, UniProt Q194T2); type: functional, Influenza A virus (A/California/07/2009(H1N1))
Sequence of Nonstructural protein 1 (Q194T2 whole entry): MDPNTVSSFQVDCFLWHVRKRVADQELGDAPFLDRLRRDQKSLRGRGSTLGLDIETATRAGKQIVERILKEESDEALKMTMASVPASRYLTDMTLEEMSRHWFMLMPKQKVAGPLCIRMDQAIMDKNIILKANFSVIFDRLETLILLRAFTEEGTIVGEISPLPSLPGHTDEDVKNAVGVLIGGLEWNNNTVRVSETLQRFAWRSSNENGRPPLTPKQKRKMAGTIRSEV

[4] = test system: P388; experiment: cells; type: functional; settings: Mus musculus, P388
[5] = Luminescence-based dose response cell-based high throughput screening assay for cytotoxic compounds using the IEC-6 intestinal epithelial cell line. [Related pubchem assays: 1858 (Summary AID.), 1825 (Counterscreen.), 1907 (Confirmation screen.)]; type: functional
[6] = test system: Streptococcus sp. 'group A'; experiment: growth inhibition of control SK(-) GAS strain, dose response, counter-screen for streptokinase expression inhibitor project, luminescence, kanamycin, BacTiterGlo, confirmation (AID 1900); type: functional, organism-based
[7] = test system: P388/ADR; experiment: cells; type: functional; settings: Mus musculus
[8] = biological target: T1, Streptokinase A (Streptococcus pyogenes serotype M1, UniProt P10520); experiment: S. pyogenes streptokinase expression inhibitors, potency, dose response, plasminogen activation absorbance, OD405 (AID 1914); type: functional, Streptococcus pyogenes M1 GAS;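 note: secreted streptokinase activity via plasminogen activation per viability signal from cell pellet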
T1 sequence (P10520 whole entry): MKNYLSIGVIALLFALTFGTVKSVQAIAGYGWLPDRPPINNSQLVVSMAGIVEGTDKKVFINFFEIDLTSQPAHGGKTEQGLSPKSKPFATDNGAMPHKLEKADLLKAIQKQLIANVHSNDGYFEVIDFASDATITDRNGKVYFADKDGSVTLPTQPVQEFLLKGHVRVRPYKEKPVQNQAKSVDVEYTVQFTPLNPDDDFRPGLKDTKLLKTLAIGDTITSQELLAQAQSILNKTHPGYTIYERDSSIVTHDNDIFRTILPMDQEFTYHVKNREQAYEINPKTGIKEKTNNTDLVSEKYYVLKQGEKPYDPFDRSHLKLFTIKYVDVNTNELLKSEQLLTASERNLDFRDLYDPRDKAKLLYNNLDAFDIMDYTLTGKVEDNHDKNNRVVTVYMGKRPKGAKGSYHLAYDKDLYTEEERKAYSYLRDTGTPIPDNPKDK

[9] = test system: SN12K1; experiment: cells; type: functional; settings: Homo sapiens, SN12K1
[10] = test system: Streptococcus; experiment: Group A Streptococcus viability loss, dose response, counter-screen for streptokinase expression inhibitor project, luminescence, BacTiterGlo (AID 1915); type: functional, organism-based;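 note: potency for reduction of bacterial viability or growth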
[11] = inhibitors of Vif binding to APOBEC3G peptide, primary screen, biochemical, TR-FRET, GST-Vif 1-94, biotin-A3G peptide, dose response retest (AID 1117319); type: functional;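 note: TR-FRET signal of purified GST-Vif binding a biotinylated A3G peptide; inhibitors lower the FRET signal by blocking Vif and A3G binding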
[12] = biological target: T2, Estrogen receptor (Homo sapiens, UniProt P03372); experiment: potentiators of ERα–SRC-1 coactivator binding, dose response, biochemical, TR-FRET, ERα LBD (AID 737)
T2 sequence (P03372 whole entry): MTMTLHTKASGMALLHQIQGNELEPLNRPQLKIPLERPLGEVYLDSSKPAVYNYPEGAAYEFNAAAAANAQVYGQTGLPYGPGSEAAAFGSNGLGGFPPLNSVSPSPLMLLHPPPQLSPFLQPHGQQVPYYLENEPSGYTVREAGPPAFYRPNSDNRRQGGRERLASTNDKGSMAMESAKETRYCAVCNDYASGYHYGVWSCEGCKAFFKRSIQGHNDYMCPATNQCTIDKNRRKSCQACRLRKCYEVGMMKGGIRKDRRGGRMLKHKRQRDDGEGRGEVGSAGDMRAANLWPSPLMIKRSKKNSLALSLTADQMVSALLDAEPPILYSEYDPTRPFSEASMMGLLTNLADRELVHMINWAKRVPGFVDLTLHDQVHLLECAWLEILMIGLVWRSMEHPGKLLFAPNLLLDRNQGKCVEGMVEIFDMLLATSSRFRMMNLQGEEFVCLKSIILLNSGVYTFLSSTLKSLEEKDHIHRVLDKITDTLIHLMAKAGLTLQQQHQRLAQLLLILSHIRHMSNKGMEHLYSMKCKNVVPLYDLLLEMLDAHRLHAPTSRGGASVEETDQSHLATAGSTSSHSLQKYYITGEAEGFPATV

[13] = biological target: Photoreceptor-specific nuclear receptor (Homo sapiens, UniProt Q9Y5X4); type: functional, cell-based;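 note: CHO-S cells with Gal4-NCOR and VP16-NR2E3 two-hybrid luciferase reporter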
Sequence of Photoreceptor-specific nuclear receptor (Q9Y5X4 whole entry, the tested form may be a part): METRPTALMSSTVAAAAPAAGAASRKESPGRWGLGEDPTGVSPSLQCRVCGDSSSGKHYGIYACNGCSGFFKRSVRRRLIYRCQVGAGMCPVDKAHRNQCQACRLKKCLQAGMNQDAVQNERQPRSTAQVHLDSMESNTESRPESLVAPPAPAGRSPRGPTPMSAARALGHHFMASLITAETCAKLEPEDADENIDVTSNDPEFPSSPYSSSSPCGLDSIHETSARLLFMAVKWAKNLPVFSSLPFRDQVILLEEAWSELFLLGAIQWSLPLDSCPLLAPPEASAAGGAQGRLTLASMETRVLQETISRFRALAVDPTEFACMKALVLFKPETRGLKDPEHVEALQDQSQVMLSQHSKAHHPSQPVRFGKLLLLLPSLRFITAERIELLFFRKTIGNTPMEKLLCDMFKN

[14] = P. falciparum Dd2 growth inhibitors, dose response, SYBR Green, cherry-picked samples (AID 1159567); type: functional, cell-based
[15] = P. falciparum Dd2 growth inhibitors, dose response, SYBR Green, dry powder samples (AID 1159566); type: functional, cell-based;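 note: potency for growth inhibition with lower SYBR green DNA signal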
[16] = P. falciparum ATP4 D1247Y mutant growth inhibitors, dose response, NITD609-resistant line, SYBR Green, dry powder (AID 1159571); type: functional, cell-based;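 note: parasites synchronized at ring stage by sorbitol before testing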
[17] = Plasmodium falciparum Dd2 Sybr green parasite growth Measured in Cell-Based and Microorganism Combination System Using Plate Reader - 2153-01_Inhibitor_Dose_DryPowder_Activity_Set3.; type: functional
[18] = P. falciparum 3D7-ScDHODH growth inhibitors, dose response, SYBR Green, dry powder samples (AID 1159570); type: functional, cell-based;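 note: parasite growth measured after 72 hours of compound exposure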
[19] = Luminescent dose response cell-based high throughput screening assay for inhibitors of the Janus kinase 2 mutant JAK2V617F. [Related pubchem assays: 1446 (Primary screen.), 1521 (Confirmation assay.), 1486 (Counter screen.)]; type: functional
[20] = ADAM10 protease inhibitors, dose response, selectivity assay for ADAM17 exosite inhibitor project, biochemical, FRET peptide substrate, recombinant human ADAM10 (AID 743259);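 note: ADAM10 enzyme cleaving a FRET peptide substrate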
[21] = biological target: Disintegrin and metalloproteinase domain-containing protein 17 (Homo sapiens, UniProt P78536); experiment: exosite inhibitors of ADAM17, dose response, biochemical (AID 743260)
Sequence of Disintegrin and metalloproteinase domain-containing protein 17 (P78536 whole entry, the tested form may be a part): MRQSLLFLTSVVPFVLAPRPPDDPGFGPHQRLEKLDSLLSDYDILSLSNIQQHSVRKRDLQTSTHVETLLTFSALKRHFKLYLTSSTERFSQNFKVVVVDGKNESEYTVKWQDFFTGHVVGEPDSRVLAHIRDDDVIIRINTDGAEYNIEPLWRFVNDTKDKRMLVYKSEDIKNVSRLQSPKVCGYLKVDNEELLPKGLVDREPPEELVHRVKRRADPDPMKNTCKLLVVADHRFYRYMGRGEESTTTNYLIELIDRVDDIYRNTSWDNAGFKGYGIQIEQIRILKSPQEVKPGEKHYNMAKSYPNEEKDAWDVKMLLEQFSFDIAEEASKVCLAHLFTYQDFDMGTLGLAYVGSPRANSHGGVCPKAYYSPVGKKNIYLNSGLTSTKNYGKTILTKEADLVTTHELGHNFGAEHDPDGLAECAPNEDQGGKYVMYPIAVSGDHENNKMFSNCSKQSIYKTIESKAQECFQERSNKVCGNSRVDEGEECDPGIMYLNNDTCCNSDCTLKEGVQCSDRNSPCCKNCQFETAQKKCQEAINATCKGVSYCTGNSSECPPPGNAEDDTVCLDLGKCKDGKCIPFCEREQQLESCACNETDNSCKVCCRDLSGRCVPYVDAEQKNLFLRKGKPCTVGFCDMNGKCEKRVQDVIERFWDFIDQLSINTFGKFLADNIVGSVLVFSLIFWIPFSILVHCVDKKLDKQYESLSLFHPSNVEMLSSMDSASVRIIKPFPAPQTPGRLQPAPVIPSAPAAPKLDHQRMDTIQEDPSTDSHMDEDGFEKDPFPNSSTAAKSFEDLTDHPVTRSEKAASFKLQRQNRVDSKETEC

[22] = biological target: Mitogen-activated protein kinase 10 (Homo sapiens, UniProt P53779); experiment: Dose response biochemical screening assay for inhibitors of c-Jun N-Terminal Kinase 3 (JNK3). [Related pubchem assays: 746 ]
Sequence of Mitogen-activated protein kinase 10 (P53779 whole entry): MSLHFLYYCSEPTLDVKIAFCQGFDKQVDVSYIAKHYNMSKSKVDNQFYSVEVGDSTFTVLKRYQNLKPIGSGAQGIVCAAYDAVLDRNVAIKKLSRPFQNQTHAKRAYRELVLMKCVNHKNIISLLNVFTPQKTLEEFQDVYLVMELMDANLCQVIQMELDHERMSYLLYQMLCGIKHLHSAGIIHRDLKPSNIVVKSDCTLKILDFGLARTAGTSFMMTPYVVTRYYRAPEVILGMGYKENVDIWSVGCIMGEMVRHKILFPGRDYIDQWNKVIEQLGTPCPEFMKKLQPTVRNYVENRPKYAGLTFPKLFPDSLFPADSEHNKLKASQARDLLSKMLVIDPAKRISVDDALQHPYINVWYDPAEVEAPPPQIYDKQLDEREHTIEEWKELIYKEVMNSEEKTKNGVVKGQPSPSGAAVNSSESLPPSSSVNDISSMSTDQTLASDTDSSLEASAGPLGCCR

[23] = cytotoxicity toward Colo320 cells – cell-based, CellTiter-Glo luminescence, IC50, dose response (AID 1117334); type: functional; settings: COLO 320
[24] = cytotoxicity toward HT-29 cells – cell-based, CellTiter-Glo luminescence, IC50, dose response (AID 1117330); type: functional
[25] = RKO cell viability reduction, dose response, CellTiter-Glo luminescence (AID 1117322); type: functional
[26] = CellTiter-Glo luminescent dose response of DLD-1 viability loss (AID 1117352); type: functional
[27] = SNU-C1 cell viability reduction, dose response, CellTiter-Glo luminescence (AID 1117323); type: functional, cell-based
[28] = Concentration-dependent survival of SW480 colon cancer line, luminescence detection with CellTiter-Glo, half-maximal inhibitory concentration (AID 1117338); type: functional
[29] = cytotoxicity toward HCT116 cells – cell-based, CellTiter-Glo luminescence, IC50, dose response (AID 1117332); type: functional; settings: HCT-116
[30] = HCT116 cell viability decrease, GSK3B pretreatment – CellTiter-Glo, IC50, dose response (AID 1117339); type: functional; settings: HCT-116
[31] = biological target: 5-hydroxytryptamine receptor 1A (Homo sapiens, UniProt P08908); type: functional
Sequence of 5-hydroxytryptamine receptor 1A (P08908 whole entry): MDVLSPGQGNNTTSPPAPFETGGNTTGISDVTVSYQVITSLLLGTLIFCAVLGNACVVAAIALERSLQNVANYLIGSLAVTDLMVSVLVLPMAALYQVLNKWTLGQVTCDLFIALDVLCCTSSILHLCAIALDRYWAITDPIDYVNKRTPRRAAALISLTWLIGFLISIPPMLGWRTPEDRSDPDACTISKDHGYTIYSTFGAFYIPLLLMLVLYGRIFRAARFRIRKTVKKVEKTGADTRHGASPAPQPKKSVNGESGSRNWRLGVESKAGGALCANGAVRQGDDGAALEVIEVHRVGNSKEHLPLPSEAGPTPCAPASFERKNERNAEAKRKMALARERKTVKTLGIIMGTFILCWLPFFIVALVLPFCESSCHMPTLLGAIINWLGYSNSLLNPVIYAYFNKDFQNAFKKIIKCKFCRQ

[32] = biological target: Sphingosine 1-phosphate receptor 2 (Homo sapiens, UniProt O95136); experiment: Dose Response Cell Based Assay for Agonists of the S1P2 Receptor of Purchased Analogues. [Related pubchem assays: 729, 843, 854, 736 ]; type: functional
Sequence of Sphingosine 1-phosphate receptor 2 (O95136 whole entry): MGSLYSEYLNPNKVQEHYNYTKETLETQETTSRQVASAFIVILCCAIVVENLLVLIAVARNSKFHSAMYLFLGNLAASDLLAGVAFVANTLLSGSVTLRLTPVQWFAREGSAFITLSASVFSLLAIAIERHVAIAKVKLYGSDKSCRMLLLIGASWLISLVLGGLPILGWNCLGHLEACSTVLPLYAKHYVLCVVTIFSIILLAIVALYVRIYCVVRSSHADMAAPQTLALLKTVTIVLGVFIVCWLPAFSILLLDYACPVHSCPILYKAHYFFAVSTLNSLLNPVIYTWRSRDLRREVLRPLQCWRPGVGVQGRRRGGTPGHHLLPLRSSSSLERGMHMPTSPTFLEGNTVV

Structure (SMILES): COc1ccc2c3c([nH]c2c1)[C@H](CO)N(C(C)=O)CC31CCN(C(=O)CN2CCOCC2)CC1
- AC50 [1]: 2.59 µM (active)

Structure (SMILES): CC(C)(C)C1=CC(=O)C(N2CCOCC2)=CC1=O
- EC50 [2]: > 100 µM (active)
- IC50 [3]: > 100 µM (active)

Structure (SMILES): N=c1ccn2c(n1)O[C@H]1[C@H](O)[C@@H](CO)O[C@H]12 [ANCITABINE HYDROCHLORIDE]
- GI50 [4]: 0.103 µM (active)
- IC50 [5]: 1.79 µM (active)
- EC50 [6]: 3.2 µM (active)
- GI50 [7]: 0.205 µM (active)
- EC50 [8]: > 150 µM (not active)
- GI50 [9]: 0.191 µM (active)
- EC50 [10]: 53.1 µM (active)

Structure (SMILES): Cn1cc(CN2CCN(CCO)CC2)c(-c2ccc(Oc3ccccc3)cc2)n1
- IC50 [11]: > 100 µM (active)

Structure (SMILES): Cc1ccc(NC(=O)CSc2nnnn2-c2ccc3c(c2)OCO3)cc1C
- EC50 [12]: 8.47 µM (active)
- IC50 [13]: 0.581 µM (active)

Structure (SMILES): N#C[C@H]1[C@@H](c2ccc(C#CC3CCCC3)cc2)[C@@H](CO)N1S(=O)(=O)Cc1ccccc1
- AC50 [14]: 2.73 µM (active)
- AC50 [15]: 0.982 µM (active)
- AC50 [16]: 3.23 µM (active)
- AC50 [17]: 3.05 µM (active)
- AC50 [18]: 2.06 µM (active)

Structure (SMILES): Cc1nn2c(NCc3ccccn3)c3c(nc2c1-c1ccccc1)CCC3
- IC50 [19]: 1.03 µM (active)

Structure (SMILES): C=C(C)COc1ccc(-c2nc(N)ncc2-c2ccc(OC)cc2)c(O)c1
- IC50 [20]: > 69.5 µM (inactive)
- IC50 [21]: > 69.5 µM (inactive)
- IC50 [22]: 29.4 µM (not active)

Structure (SMILES): CCCCCCCC(=O)OCC(COC(=O)CCCCCCC)OC(=O)CCCCCCC [TRICAPRILIN]
- IC50 [23]: > 20 µM (inactive)
- IC50 [24]: > 20 µM (inactive)
- IC50 [25]: > 20 µM (inactive)
- IC50 [26]: > 20 µM (inactive)
- IC50 [27]: > 20 µM (inactive)
- IC50 [28]: > 20 µM (inactive)
- IC50 [29]: > 20 µM (inactive)
- IC50 [30]: > 20 µM (inactive)

Structure (SMILES): CCOC(=O)C1CCN(C(=O)Cc2c(C(=O)O)n(C)c3ccccc23)CC1
- EC50 [31]: > 50 µM (not active)

Structure (SMILES): Cc1cc(C(=O)COC(=O)C(O)c2ccccc2)c(C)n1Cc1ccccc1 (configuration not stated)
- EC50 [32]: > 30 µM (not active)
